Source: patent publication US20190111107A1, “METHODS FOR MODULATING INTESTINAL MICROBIOTA” (DEFENSIN THERAPEUTICS APS, priority 2016, published 2019)
“Also recorded” adds a separate entry of the source. Positions of bridges follow the written chain, without caps; N, C: chain ends. No end group written: not given here.

Tests used:
mice fed a high fat diet = assay: Prophylactic treatment with defensins in mice fed a high fat diet: weight, lean/fat mass, glucose homeostasis; format: in vivo, C57/BL/6J mice; conditions: for weight gain compared with HFD reference group: 10 week study, defensin in HFD, 1,2mg hBD2 per kg mouse per day, HD5 equimolar; for visceral fat (eWAT) compared with HFD group / liver weight: at termination; for liver weight: vs HFD and LFD groups; for glucose-stimulated insulin secretion compared with HFD control mice: during the glucose challenge; for Glucose Tolerance test compared with HFD group: oral glucose tolerance test; for HOMA-IR index compared with HFD group: week 9
Procedure: Schematic outline of the experimental set up for investigating the effects of mammalian alfa and/or beta defensins on mice metabolism. At week −1, the C57/BL/6J mice were divided in groups and cages, so that there were 3 mice per cage and cages per group. Between week −1 and 0, the mice were clinically examined by magnetic resonance scan to estimate fat distribution. […] At week 4, in addition to analysis of the microbiota, the mice were scanned and blood glucose and insulin levels were measured. […] At week 7, insulin tolerance test (ITT) was conducted. At week 8, oral glucose tolerance test (OGTT) and glucose-stimulated insulin secretion (GSIS) were conducted. At week 9 (termination), several analyses were conducted, in particular the mice were weighed and scanned, and plasma composition and microbiota composition of colon, cecum and small intestine were assessed.
Mice: Mice were housed in trios, 4 cages per group. Feed intake was registered daily just before lights were turned off (6 pm). Individual mice were subjected to experimental procedures in altered order both group and cage wise. Mice were kept at room temperature under a 12-hour light/dark cycle at SPF standard conditions.
Diets: For dosing, the average weight was estimated to be 25 grams per mouse. They eat approximately 3 grams of feed per mouse per day.
Treatment regime (FIG. 1A): Mice were fed either a high fat diet (HFD) or a low fat (LF) control diet. The HFD contains 4 subgroups; 1 hBD2, 1 HD5, 1 hBD2/HD5 and 1 standard HFD without supplementation of defensins. Defensin concentration is 1,2mg hBD2 per kg mouse per day. HD5 is given in equimolar concentration to hBD2.

[1] = Pharmacokinetic study of hBD-2 after single oral gavage; format: in vivo, female NMRI mice
Procedure: FIG. 28. Pharmacokinetic data following oral administration of 4 mg/kg hBD-2 to female NMRI mice. […] The results are given as group mean +/−SEM.
Pharmacokinetic study to determine oral bioavailability and establish pharmacokinetic profile of hBD-2 following single oral gavage of 4 mg/kg administration to NMRI mice.
Treatment regimen: 21 female NMRI mice were dosed by oral gavage 5 ml/kg using a gavage tube and a 1 ml syringe according to the individual body weight obtained on the day of dosing. Urine was strived sampled at random time points by gently massaging the inguinal area of the abdomen. The first blood sample was taken using a submandibular sampling method. The second blood sample was collected from Isoflurane anaesthetised mice. Intestinal samples were taken after euthanasia. The abdomen of each mouse was opened and three sections (jejunum, duodenum, and colon) of the intestines were sampled.

diet-induced obese mice = assay: Interventional treatment with defensins in diet-induced obese mice: weight, fat percentage, glucose homeostasis; format: in vivo, C57/BL/6J mice; conditions: for fat percentage / change in fat percentage compared with HFD control: 4 weeks after dietary intervention; for Glucose Tolerance Test after start of intervention: OGTT repeated biweekly from week 13-0; for Insulin Tolerance Test: insulin sensitivity compared with HFD control group: week 9, p<0.05
From the text: FIG. 1B. Schematic outline of the experimental set up for investigating the effects of mammalian alfa and/or beta defensins on mice metabolism. At week −1, the C57/BL/6J mice arrived. At week 0 feces was collected. During run-in between week 0 and week 12 the mice were fed a high fat diet. At week 12 the mice were clinically examined by magnetic resonance scan to estimate fat distribution, feces was collected and oral glucose tolerance test (OGTT) and glucose-stimulated insulin secretion (GSIS) performed. At week 13-0 the mice were divided in groups and cages with 4 mice percage and 3 cages per group. At week 0, 12 and 13-10, the microbiome of the faeces was analysed. At week 13-2, 13-4, 13-6, 13-8 and 13-10 the mice were scanned and blood glucose and insulin levels were measured. At week 13-9, insulin tolerance test (ITT) was conducted. At week 13-10 (termination), several analyses were conducted, in particular the mice were weighed and scanned, and plasma composition and microbiota composition of colon, cecum and small intestine were assessed. In addition, iWAT, eWAT and liver weight were measured.
Mice and diets. The experiment elucidates the effect of hBD-2 and HD5 in the treatment of metabolic syndrome (MetS) in diet-induced obese mice. A run-in period of 13 weeks where mice were fed a very HFD (60% energy from fat) preceded the intervention. Only mice meeting the criteria of a minimum of 12 gram weight gain (approximately 50% of initial bodyweight) during the run-in period were included in the final analyses. […] They were exposed to all experimental tests, but excluded from the analyses.
Treatment regimen (FIG. 1B). Before the intervention all mice were MR scanned and an OGTT was performed. Cages of mice were allocated to experimental groups based on their fat mass. All subsequent measures were paired with data from the same mouse before the intervention.
A LFD (low fat diet) reference group was running in parallel. As controls for the intervention 2 additional groups were included: 1 very HFD and 1 LFD. Experimental mice stayed on the very HFD during the intervention. The mice were on the experimental diet for 10 weeks. They were co-housed throughout the experiment, 4 mice per cage, 3 cages per group. All tests ran over 3 days, 1 cage per group per day.

intestinal microbiota = assay: Longitudinal 16S characterization of intestinal microbiota under prophylactic defensin treatment; format: in vivo, mice
From the text: FIG. 21A and 21B. The figures illustrate changes from week 1 (Wk1) to week 10 (Wk10) for the four treatments in Example 1: High fat diet with HD5-HF HD5; high fat diet with hBD2−HD hBD2; High fat diet—no treatment: HF; Low fat diet: LF. Weighted unifrac analysis of microbiota at week 1 (21A) and week 10 (21 B) i.e. relative abundance of bacterial species. […] Abbreviations: Wk 1—week 1; W10—week 10.
FIG. 21C. Illustration of the species of microbiota contributing to the change. […] Allobaculum is a short chain fatty acid producing species. Lactobacillus is a bacteria with anti-inflammatory properties.
Microbial analyses were carried out to study the microbiota of the intestine. Longitudinal 16S characterization was conducted on 4 paired samples from 60 mice, 240 samples in total. Each mouse was sampled prior to diet change, 1 week post diet change, 4 weeks post diet change and at termination, thus ensuring a thorough characterization of the faecal microbiota as a result of defensin treatment.

isolated hepatocytes = conditions: Liu et al. (2008); cited from earlier work
[2] = test system: Dextran Sodium Sulphate (DSS) induced colitis; assay: Acute 10-day Dextran Sodium Sulphate (DSS) induced colitis model, hBD-2-albumin fusion C-terminal; format: in vivo, mice; conditions: active control
Procedure: To determine and assess the anti-inflammatory effect of “hBD-2-albumin fusion C-terminal” in an acute 10-day Dextran Sodium Sulphate (DSS) induced colitis model in mice.
Treatment regimen: “hBD-2-albumin C-terminal” was administered intravenously via the tail vein or subcutaneously with the use of a sterile 25G needle in a dosing volume of 10 ml/kg body weight. The animals received 1 dose daily for 10 […] days. The active control Prednisolone (Pred) was given orally by gavage at a dose of 1 mg/kg in a dosing volume of 10 ml/kg body weight OD.

Compound: GIGDPVTCLKSGAICHPVFCPRRYKQIGTCGLPGTKCCKKP (disulfide 8-37, 15-30, 20-38 (inferred)) [hBD-2, human beta defensin 2]
- weight gain compared with HFD reference group (mice fed a high fat diet): gained significantly less weight than the HFD reference group
- share of defensin-fed mice with a Body Fat Percent resembling LFD reference mice (mice fed a high fat diet; 60% HFD): 50%
- visceral fat mass of the best protected mice compared with LFD reference mice (mice fed a high fat diet; 60% HFD): same or smaller visceral fat mass than LFD reference mic
- lean mass gained at the end of the study compared with HFD group (mice fed a high fat diet; HFD plus hBD-2 vs HFD): gained the same amount of lean mass
- fat mass at the end of the study compared to the LFD group (mice fed a high fat diet; HFD plus hBD-2 vs LFD, p=0.25): trended towards increased fat mass compared to the LFD group
- visceral fat (eWAT) compared with HFD group (mice fed a high fat diet): significantly less visceral fat (eWAT) than the HFD group
- liver weight (mice fed a high fat diet): no statistical difference between the three groups in terms of liver weight
- Glucose Stimulated Insulin Secretion: insulin concentration compared with LFD group (mice fed a high fat diet; during the GTT, week 7): higher but not significantly different insulin concentration than the LFD group; also recorded: higher but not significantly different insulin concentration from the LFD group
- glucose-stimulated insulin secretion compared with HFD control mice (mice fed a high fat diet): glucose stimulated insulin response during the glucose challenge was improved
- amount of fat mass gained by the HFD group compared to the HFD plus hBD-2 group (mice fed a high fat diet; first analysis, p=0.005): 2 times
- Insulin Tolerance test: compared with LFD reference group (mice fed a high fat diet; mouse, in vivo): no statistical significant difference between the LFD reference group and the HFD plus hBD-2 group
- Insulin Tolerance test: insulin sensitivity compared with HFD group (mice fed a high fat diet; mouse, in vivo): significantly more sensitive to insulin than the HFD group
- Glucose Tolerance test compared with HFD group (mice fed a high fat diet; week 7): slightly prolonged glucose clearance but reached significantly lower glucose levels than the HFD group
- Glucose Tolerance test compared with HFD group (mice fed a high fat diet; week 7, listed as hBD2): Glucose tolerance was markedly improved compared to HFD control mice
- Five Hour Fasting insulin: HFD group compared with HFD plus hBD-2 group (mice fed a high fat diet; p=0.057): borderline significantly higher fasting insulin than the HFD plus hBD-2 group
- Five Hour Fasting insulin: LFD compared with HFD plus hBD-2 group (mice fed a high fat diet; p=0.17): no significant difference between the LFD and HFD plus hBD-2 groups
- amount of fat mass in percent of total body weight gained by the HFD group compared to the HFD plus hBD-2 group (mice fed a high fat diet; re-analysis, p=0.005): two times
- HOMA-IR index compared with HFD group (mice fed a high fat diet): statistically significantly lower
- systemic availability after oral dosing ([1]; 4 mg/kg oral, mice): not systemically available
- time hBD2 remains detectable in the colon content after administration ([1]; oral 4 mg/kg): up to 360 minutes
- fat percentage / change in fat percentage compared with HFD control (diet-induced obese mice): significantly smaller
- Glucose Tolerance Test after start of intervention (diet-induced obese mice): smaller peak in blood glucose as well as a faster clearance of glucose already after 2 weeks
- obese and glucose intolerant mice that significantly improved their glucose tolerance (diet-induced obese mice; following 2 weeks of intervention): 7/8
- visceral fat (eWAT) at termination compared with HFD control (diet-induced obese mice; mouse, in vivo): no significant difference in visceral fat (eWAT) between the HFD fed groups
- weight gain the first 4 weeks post dietary intervention compared with standard HFD group (diet-induced obese mice; p=0.07): tended to gain less weight the first 4 weeks post dietary intervention, although not significantly
- weight gain from week 4 to the end of the study period compared with standard HFD group (diet-induced obese mice; p=0.82): gained similar weight as the standard HFD group
- Insulin Tolerance Test: insulin sensitivity compared with HFD control group (diet-induced obese mice): more insulin sensitive compared to the HFD control group
- share of the group with a smaller fat percentage than before the intervention (diet-induced obese mice; weeks 4 post dietary intervention): ~75%

Compound: human intestinal alpha defensin 5 (ATCYCRTGRCATRESLSGVCEISGRLYRLCCR; listed as Homo sapiens) [HD5]
- weight gain compared with HFD reference group (mice fed a high fat diet): gained less weight than HFD-fed control mice (FIG. 17A), although the effect was not statistically significant
- visceral fat (eWAT) compared with HFD group (mice fed a high fat diet): borderline less visceral fat
- liver weight (mice fed a high fat diet): No statistically significant difference with respect to liver weight
- glucose-stimulated insulin secretion compared with HFD control mice (mice fed a high fat diet): no significant improvement
- Insulin Tolerance test: insulin sensitivity compared with HFD group (mice fed a high fat diet; mouse, in vivo): no significant improvement
- fat % compared with HFD-fed control mice (mice fed a high fat diet; mouse, in vivo): borderline less fat %
- feed efficiency compared with HFD-fed control mice (mice fed a high fat diet; mouse, in vivo): tendency towards lower feed efficiency
- Glucose Tolerance test compared with HFD group (mice fed a high fat diet; week 7): no significant improvement
- HOMA-IR index compared with HFD group (mice fed a high fat diet): no significant improvement
- microflora composition (weighted unifrac analysis) relative to LFD and non-treated HFD groups (intestinal microbiota; after 10 weeks, oral HD5 in HFD): gradually approached the bacterial flora of mice fed a LFD; also recorded: partial normalization of the microflora
- abundance of bacterial genera in the intestinal microbiota compared with non-treated HFD mice (intestinal microbiota; at termination): increased abundance of Allobaculum and Lactobacillus and a decrease in abundance of Clostridium
- fat percentage / change in fat percentage compared with HFD control (diet-induced obese mice): significantly lower fat percentage
- fat percentage of total body weight over time (diet-induced obese mice; 10 weeks intervention): tendency of decreasing fat percentage
- weight gain after dietary intervention compared with HFD control (diet-induced obese mice; 10 weeks on experimental diet): gained significantly less weight than the HFD control
- Glucose Tolerance Test after start of intervention (diet-induced obese mice): improved over time
- visceral fat (eWAT) at termination compared with HFD control (diet-induced obese mice; mouse, in vivo): not significantly different
- weight of the liver at termination compared to the HFD control (diet-induced obese mice; mouse, in vivo): tended to be decreased
- Insulin Tolerance Test: insulin sensitivity compared with HFD control group (diet-induced obese mice): more insulin sensitive than the HFD control

Compound: human neutrophil peptide 1 [HNP-1]
- inhibition of glycogenolysis and gluconeogenesis (isolated hepatocytes): able to inhibit glycogenolysis and gluconeogenesis in isolated hepatocytes

Compound: C[C@]12C=CC(=O)C=C1CC[C@@H]1[C@@H]2[C@@H](O)C[C@@]2(C)[C@H]1CC[C@]2(O)C(=O)CO [Prednisolon, Prednisolone]
- DAI ([2]; 1 mg/kg orally by gavage daily, p<0.05): significant inhibition of the DAI on day 9
- histological injury in the proximal part of the colon ([2]; 1 mg/kg orally daily): failed to significantly reduce histological injury in the proximal part of the colon
- histological injury in the distal colon ([2]; 1 mg/kg orally daily, p<0.01): did reduce the injury in the distal colon

Compound: human neutrophil peptide 2 (CYCRIPACIAGERRYGTCIYQGRLWAFCC; ends and bridges not checked; cysteine pairing not given here; UniProt P59665 66-94, looked up) [HNP-2, α-defensin produced by leucocytes]
- inhibition of glycogenolysis and gluconeogenesis (isolated hepatocytes): able to inhibit glycogenolysis and gluconeogenesis in isolated hepatocytes
